Test results: ChEMBL document CHEMBL3044961, “Rapid synthesis, characterization, anticancer and antimicrobial activity studies of substituted thiadiazoles and their dinucleating ligand metal complexes” (Med Chem Res, 2012)
The source made the active and inactive calls. The rule behind the calls is not given here.

What was measured:
[1] = test system: Aspergillus flavus; experiment: Antifungal activity against Aspergillus flavus at 1 ug/ml after 48 hr by well diffusion method; assay type: functional; conditions: read-out: IZ
[2] = test system: Escherichia coli; experiment: Antibacterial activity against Escherichia coli at 1 ug/ml after 24 hr by well diffusion method; assay type: functional; conditions: read-out: IZ
[3] = test system: Proteus vulgaris; experiment: Antibacterial activity against Proteus vulgaris at 1 ug/ml after 24 hr by well diffusion method; assay type: functional; conditions: for zone of inhibition at 1 µg/mL: read-out: IZ
[4] = test system: Pectobacterium carotovorum; experiment: Antibacterial activity against Pectobacterium carotovorum at 1 ug/ml after 24 hr by well diffusion method; assay type: functional; conditions: for zone of inhibition at 1 µg/mL: read-out: IZ
[5] = test system: Bacillus subtilis; experiment: Antibacterial activity against Bacillus subtilis at 1 ug/ml after 24 hr by well diffusion method; assay type: functional; conditions: read-out: IZ
[6] = test system: Rhizoctonia solani; experiment: Antifungal activity against Rhizoctonia solani at 1 ug/ml after 48 hr by well diffusion method; assay type: functional; conditions: for zone of inhibition at 1 µg/mL: read-out: IZ
[7] = test system: Lasiodiplodia theobromae; experiment: Antifungal activity against Lasiodiplodia theobromae at 1 ug/ml after 48 hr by well diffusion method; assay type: functional; conditions: for zone of inhibition at 1 µg/mL: read-out: IZ
[8] = test system: Penicillium expansum; experiment: Antifungal activity against Penicillium expansum at 1 ug/ml after 48 hr by well diffusion method; assay type: functional; conditions: read-out: IZ
[9] = test system: Micrococcus luteus; experiment: Antibacterial activity against Micrococcus luteus at 1 ug/ml after 24 hr by well diffusion method; assay type: functional; conditions: for zone of inhibition at 1 µg/mL: read-out: IZ
[10] = test system: Klebsiella pneumoniae; experiment: Antibacterial activity against Klebsiella pneumoniae at 1 ug/ml after 24 hr by well diffusion method; assay type: functional; conditions: read-out: IZ
[11] = test system: Enterococcus faecalis; experiment: Antibacterial activity against Enterococcus faecalis at 1 ug/ml after 24 hr by well diffusion method; assay type: functional; conditions: for zone of inhibition at 1 µg/mL: read-out: IZ
[12] = test system: Streptococcus faecalis; experiment: Antibacterial activity against Streptococcus faecalis at 1 ug/ml after 24 hr by well diffusion method; conditions: read-out: IZ
[13] = test system: U-937; experiment: Cytotoxicity against Homo sapiens (human) U937 cells after 96 hr by MTT assay; assay type: functional, cell-based
[14] = test system: HL-60; experiment: Cytotoxicity against Homo sapiens (human) HL60 cells after 96 hr by MTT assay; assay type: functional, cell-based
[15] = Homo sapiens, U-937, 96 h, read-out: IC50
[16] = Homo sapiens, HL-60, 96 h, read-out: IC50

| SMILES | zone of inhibition at 1 µg/mL [1] [mm] | zone of inhibition at 1 µg/mL [2] [mm] | zone of inhibition at 1 µg/mL [4] [mm] | zone of inhibition at 1 µg/mL [5] [mm] | inhibition zone (IZ) [6] | zone of inhibition at 1 µg/mL [7] [mm] | zone of inhibition at 1 µg/mL [8] [mm] | zone of inhibition at 1 µg/mL [9] [mm] | zone of inhibition at 1 µg/mL [10] [mm] | zone of inhibition at 1 µg/mL [11] [mm] | zone of inhibition at 1 µg/mL [12] [mm] | IC50 [13, 15] [µM] | IC50 [14, 16] [µM] | zone of inhibition at 1 µg/mL [3] [mm] | zone of inhibition at 1 µg/mL [6] [mm] | inhibition zone (IZ) [4] | other results |
| --- | --- | --- | --- | --- | --- | --- | --- | --- | --- | --- | --- | --- | --- | --- | --- | --- | --- |
| CCc1nnc(NN=C(C#N)C#N)s1 | 12 | 9 | 7 | 11 | inactive | 15 | 16 | 6 | 7 | 7 | 8 | – | – | – | – | – | inhibition zone (IZ) [3]: inactive |
| O=NN(CCCl)C(=O)NCCCl [CARMUSTINE] | – | – | – | – | – | – | – | – | – | – | – | 12.3 | 30.5 | – | – | – | – |
| CC(=O)C(=NNc1nnc(C)s1)C(C)=O | 12 | 8 | 6 | 7 | – | 6 | 18 | – | 8 | 8 | 7 | 24.7 | 23 | 7 | 4 | – | inhibition zone (IZ) [9]: inactive |
| CCOC(=O)/C(C#N)=N/Nc1nnc(CC)s1 | 12 | 9 | – | 9 | inactive | 10 | 16 | 6 | 7 | 6 | 5 | – | – | – | – | inactive | inhibition zone (IZ) [3]: inactive |
| Cc1nnc(NN=C(C#N)C#N)s1 | 12 | 6 | – | 10 | inactive | 8 | 15 | 7 | 8 | 9 | 6 | – | 28.1 | 10 | – | inactive | IC50 ([13]; u-937): Not Active |
| CC1(C)S[C@@H]2[C@H](NC(=O)[C@H](N)c3ccccc3)C(=O)N2[C@H]1C(=O)O [AMPICILLIN] | 31 | 28 | 31 | 30 | – | – | 35 | 32 | 29 | – | 30 | – | – | 33 | 29 | – | inhibition zone (IZ) [7]: inactive; inhibition zone (IZ) [11]: inactive |
| CCOC(=O)/C(C#N)=N/Nc1nnc(C)s1 | 11 | 7 | – | 8 | inactive | 7 | 17 | – | 7 | 7 | 6 | 19.3 | 22.1 | 8 | – | inactive | inhibition zone (IZ) [9]: inactive |
| O=c1[nH]cc(F)c(=O)[nH]1 [FLUOROURACIL] | – | – | – | – | – | – | – | – | – | – | – | 4.7 | 266 | – | – | – | – |
| NC(=O)NO [HYDROXYUREA] | – | – | – | – | – | – | – | – | – | – | – | – | – | – | – | – | IC50 ([14]; hl-60): Not Active |
| CCc1nnc(NN=C(C(C)=O)C(C)=O)s1 | 10 | 8 | 7 | 8 | – | 7 | 14 | 8 | 5 | 8 | 8 | – | – | 6 | 6 | – | – |
